From ChEMBL document CHEMBL1201862, “PubChem BioAssay data set” (2004)
The source made the active and inactive calls. For most assays here, no stated cut-off is given here; in the data, actives have a measured EC50 and inactives only a lower limit.

Assays:
[1] = system: INS1; assay: INS-1E survival protection against cytokine death – cell-based, luminescence, retest, dose response (AID 449756); assay type: functional; settings: Rattus norvegicus;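 further: cell death triggered by IL-1 beta plus TNF-alpha plus IFN-gamma mixture; protective hits raise ATP signal compared with cytokine alone wells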
[2] = luciferase reporter signal suppression in cells – H4 neuroglioma cells, luminescence, dose response (AID 1990); assay type: functional, cell-based
[3] = alpha-synuclein stem-loop luciferase translation blockers – H4 neuroglioma cells, luminescence, confirmation (AID 1988); assay type: functional, cell-based
[4] = Luminescence Cell-Based Dose Response HTS to Identify Inhibitors of 5'UTR Stem-Loop Driven Prion Protein mRNA Translation in H4 Neuroglioblastoma Cells. [Related pubchem assays: 1827 (Project Summary), 1813 (Primary HTS)]; assay type: functional
[5] = P. falciparum Dd2 growth inhibitors, dose response, SYBR Green, cherry-picked samples (AID 1159567); assay type: functional, cell-based
[6] = system: Streptococcus sp. 'group A'; assay: Streptococcus pyogenes SK(-)GAS viability under kanamycin – luminescence, BacTiterGlo, confirmation, counter-screen for streptokinase expression inhibitor project, dose response (AID 1900); assay type: functional, organism-based
[7] = molecular target: T1, Streptokinase A (Streptococcus pyogenes serotype M1, UniProt P10520); assay: viability-normalized secreted streptokinase activity reduction – plasminogen activation absorbance, OD405, dose response (AID 1914); assay type: functional, Streptococcus pyogenes M1 GAS;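 further: secreted streptokinase activity via plasminogen activation per viability signal from cell pellet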
T1 sequence (P10520 whole entry): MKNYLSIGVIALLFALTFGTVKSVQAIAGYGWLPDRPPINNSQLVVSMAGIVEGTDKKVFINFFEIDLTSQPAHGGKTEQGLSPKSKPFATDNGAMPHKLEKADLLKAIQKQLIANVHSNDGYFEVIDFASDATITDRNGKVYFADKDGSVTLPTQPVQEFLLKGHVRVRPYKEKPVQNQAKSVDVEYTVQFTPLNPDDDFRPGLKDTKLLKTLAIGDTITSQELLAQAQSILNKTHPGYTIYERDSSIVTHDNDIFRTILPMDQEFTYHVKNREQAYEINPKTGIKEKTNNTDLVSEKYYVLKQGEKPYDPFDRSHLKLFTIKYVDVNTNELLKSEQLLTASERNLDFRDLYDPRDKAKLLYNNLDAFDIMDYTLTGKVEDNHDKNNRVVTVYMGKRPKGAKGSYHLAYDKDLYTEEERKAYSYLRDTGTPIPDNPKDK

[8] = system: Streptococcus; assay: GAS UMAA2166 growth inhibition – luminescence, BacTiterGlo, counter-screen for streptokinase expression inhibitor project, dose response (AID 1915); assay type: functional, organism-based;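 further: potency for reduction of bacterial viability or growth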
[9] = NIH3T3 cell viability loss – ATP luminescence, mouse fibroblasts, counter-screen, dose response (AID 2010); assay type: functional, cell-based;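 further: cells exposed to compound for about 90 hours before reading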
[10] = Trypanosoma cruzi growth suppression in host cells – NIH3T3 host cells, beta-gal luminescence, confirmation (AID 2044); assay type: functional, cell-based;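 further: intracellular parasites grown in NIH/3T3 mouse fibroblasts as host cells; luminescent beta-galactosidase reporter signal from transgenic T. cruzi replicating inside host cells; inhibitors lower the luminescence signal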
[11] = viability of uninfected HEp-2 cells – cell-based, HTS, cytotoxicity control for RSV inhibitor project, dose response (AID 2410); assay type: functional; settings: human respiratory syncytial virus
[12] = molecular target: T2, Corticotropin-releasing factor receptor 2/Corticotropin-releasing factor-binding protein (Homo sapiens, UniProt P24387+Q13324); assay: activators of CRF receptor 2 with binding protein – uHTS hits, confirmation (AID 602473); assay type: functional; settings: read-out: EC50_Mean
T2 sequence (Q13324 whole entry): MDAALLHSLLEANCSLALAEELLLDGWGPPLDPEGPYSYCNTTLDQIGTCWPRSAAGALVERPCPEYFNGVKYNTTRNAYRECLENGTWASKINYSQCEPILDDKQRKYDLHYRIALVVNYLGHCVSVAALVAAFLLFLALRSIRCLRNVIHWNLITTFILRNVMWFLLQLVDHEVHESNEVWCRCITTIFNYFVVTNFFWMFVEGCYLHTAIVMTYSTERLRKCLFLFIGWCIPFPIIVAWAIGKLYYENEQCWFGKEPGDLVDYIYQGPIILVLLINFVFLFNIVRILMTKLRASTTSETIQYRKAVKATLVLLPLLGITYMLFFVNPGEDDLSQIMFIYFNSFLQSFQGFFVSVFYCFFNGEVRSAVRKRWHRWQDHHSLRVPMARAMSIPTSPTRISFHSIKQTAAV
T2 sequence (P24387 whole entry): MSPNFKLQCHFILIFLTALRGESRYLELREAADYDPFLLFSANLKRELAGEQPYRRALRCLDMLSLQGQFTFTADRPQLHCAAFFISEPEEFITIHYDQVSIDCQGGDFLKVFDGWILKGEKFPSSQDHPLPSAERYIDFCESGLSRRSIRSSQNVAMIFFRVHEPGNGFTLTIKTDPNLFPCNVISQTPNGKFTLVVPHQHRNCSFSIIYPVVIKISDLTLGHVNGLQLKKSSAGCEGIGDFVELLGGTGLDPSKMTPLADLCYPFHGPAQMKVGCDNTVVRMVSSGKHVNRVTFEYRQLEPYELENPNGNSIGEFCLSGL

[13] = molecular target: T2, Corticotropin-releasing factor receptor 2/Corticotropin-releasing factor-binding protein; assay: Dose Response confirmation of uHTS hits for small molecule antagonists of the CRF-binding protein and CRF-R2 receptor complex.; assay type: functional; settings: read-out: IC50_Mean
[14] = molecular target: T3, Calpain-2 catalytic subunit (Sus scrofa, UniProt P43367); assay: m-calpain protease blockers, concentration series – biochemical, fluorogenic peptide substrate, dose response (AID 1420); assay type: functional
T3 sequence (P43367 whole entry): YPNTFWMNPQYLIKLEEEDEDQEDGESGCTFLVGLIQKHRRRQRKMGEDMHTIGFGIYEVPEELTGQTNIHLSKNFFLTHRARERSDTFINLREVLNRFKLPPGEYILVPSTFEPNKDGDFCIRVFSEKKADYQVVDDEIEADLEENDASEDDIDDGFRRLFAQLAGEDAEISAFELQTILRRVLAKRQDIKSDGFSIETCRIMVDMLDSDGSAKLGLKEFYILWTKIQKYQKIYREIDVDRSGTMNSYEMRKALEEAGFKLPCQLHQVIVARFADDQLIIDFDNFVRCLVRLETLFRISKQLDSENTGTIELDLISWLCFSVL

With O=C(NNC(=O)c1cccnc1SCc1cccc([N+](=O)[O-])c1)c1ccc(F)cc1 the AC50 [1] was 7.02 µM (active).

In the case of O=C1CCCc2c1[nH]c1ccc(Br)cc21, the EC50 [2] is reported as < 0.1 µM (active), the EC50 [3] is reported as 9.02 µM (active) and the EC50 [4] is reported as 86.4 µM (active).

With CCC(=O)N1CC2(C1)CN(S(=O)(=O)c1ccccc1)[C@@H](CO)c1[nH]c3cc(OC)ccc3c12 the AC50 [5] was 5.43 µM (active).

In the case of CO[C@H]1CN(C)C(=O)c2cc(NC(=O)c3nc4ccccc4s3)ccc2OC[C@H](C)NC[C@@H]1C, the AC50 [5] is reported as 13.5 µM (active).

In the case of CCCn1c(C2CCCN2c2nc(-c3cccc(Br)c3)cs2)nc2cc(Cl)c(Cl)cc21 (centres undefined), the EC50 [6] is reported as 2.99 µM (active), the EC50 [7] is reported as > 150 µM (not active) and the EC50 [8] is reported as 56.5 µM (active).

With CC(N=C(S)NC1CCCCC1)c1ccc(C(C)(C)C)cc1 (centres undefined) the AC50 [1] was 6.14 µM (active).

With Cc1ccc(C[n+]2cccc(-c3ccccc3)c2)c(C)c1 the AC50 [1] was 4.24 µM (active), the EC50 [9] was 11.9 µM (active) and the EC50 [10] was 0.552 µM (active).

In the case of CCC(CC)C1=NN2C(=N)/C(=C\c3c(C)[nH]c4ccccc34)C(=O)N=C2S1, the EC50 [6] is reported as 5.71 µM (active), the EC50 [7] is reported as 18.9 µM (inconclusive) and the EC50 [8] is reported as 53 µM (active). The CC50 [11] was 16.1 µM (active).

In the case of Cc1ccc(S(=O)(=O)N2c3ccccc3OCC2C(C)(C)C)cc1 (centres undefined), the EC50 [12] is reported as > 53 µM (inactive), the EC50 [6] is reported as 16.4 µM (active) and the EC50 [7] is reported as 16.9 µM (active). For the same compound, the IC50 [13] was > 47.1 µM (inactive) and the EC50 [8] was > 150 µM (not active).

For C[C@@H]1CN([C@@H](C)CO)C(=O)c2c(c3ccccc3n2C)-c2ccccc2CO[C@H]1CN(C)C(=O)Nc1ccccc1C(F)(F)F, the AC50 [5] was 4.33 µM (active).

For NC(=O)c1ccc(NC(=O)COC(=O)C2(c3ccccc3F)CCCC2)cc1, the EC50 [2] was > 120 µM (not active), the EC50 [3] was 17.5 µM (active) and the EC50 [4] was > 120 µM (not active).

In the case of CCCNC(=O)c1ccc(N2CCC3(CC2)CC(c2ccccc2)=NO3)c(NC(=O)c2ccccc2)c1, the EC50 [2] is reported as 18.7 µM (active), the EC50 [3] is reported as 12.7 µM (active) and the EC50 [4] is reported as > 120 µM (not active).

In the case of Cc1nn(Cc2ccc(Cl)cc2Cl)c(C)c1NC(=O)NC12CC3CC(CC(C3)C1)C2, the EC50 [6] is reported as 7.54 µM (active), the EC50 [7] is reported as 32.7 µM (active) and the EC50 [8] is reported as 33.4 µM (active).

With COc1ccc(-c2nnc(SC(C)C(=O)Nc3cccc(Cl)c3)o2)cc1 (centres undefined) the IC50 [14] was 11.7 µM (not active).

With CCC(CO)Nc1ncnc2c1cnn2-c1ccc(OC)cc1 (centres undefined) the EC50 [6] was > 150 µM (not active), the EC50 [7] was > 150 µM (not active) and the EC50 [8] was > 150 µM (not active).

With Fc1cccc(Cl)c1CSc1ccc(-c2cccnc2)nn1 the IC50 [14] was 29.7 µM (not active) and the CC50 [11] was > 50 µM (active).

In the case of CO[C@@H]1CN(C)C(=O)c2ccc(NC(=O)c3cc(C)on3)cc2OC[C@@H](C)N(S(=O)(=O)c2cccc(C)c2)C[C@H]1C, the AC50 [5] is reported as 4.07 µM (active).
